From US20240132536A1, “CRYSTAL FORM OF 3-HYDROXY-5-PREGNANE-20-ONE DERIVATIVE, AND PREPARATION METHOD THEREFOR AND USE THEREOF” (priority 2021, published 2024)
Read-outs that look alike come from different tables or passages of the source.

Experiments:
[1] = cited from earlier work
[2] = in vivo; cited from earlier work
[3] = Mechanical stability of crystalline form A (XRPD after mechanical treatment); type: physicochemical
[4] = Accelerated stability test of crystalline form A (XRPD); type: physicochemical; settings: open, 40° C., RH75%, 3 months (sampled at 1, 2, 3 months)
Protocol: (§1) XRPD (X-ray Powder Diffraction) Method 1: about 10 mg of a sample is uniformly laid on a single crystal silicon sample disc, and XRPD detection is performed using following parameters. Instrument model: X'Pert^3 X-ray diffractometer; target: Cu-Kα (40 mA, 45 kV); scanning range from 3° to 40° in the 2θ interval.

[5] = type: physicochemical; settings: for Purity by HPLC, high humidity (RH92.5%) / Purity by HPLC, high temperature (60° C.) / Purity by HPLC, light (4500 ± 500 Lux): hydrochloride
[6] = Polymorph study: crystalline form A suspended and pulped in solvents, precipitate assayed by XRPD; type: physicochemical; settings: for Crystalline form after suspension (XRPD): stirred 2 days at 40° C. in darkness
Protocol: as §1
The solution was centrifuged to remove the precipitates, which were dried and assayed by XPRD as follows: […]

Row | Compound | Purity by HPLC, high humidity (RH92.5%) ([5]; day 0) | Purity by HPLC, high temperature (60° C.) ([5]; day 0) | Purity by HPLC, light (4500 ± 500 Lux) ([5]; day 0) | Purity by HPLC, high humidity (RH92.5%) ([5]; day 5) | Purity by HPLC, high temperature (60° C.) ([5]; day 5) | Purity by HPLC, light (4500 ± 500 Lux) ([5]; day 5) | Purity by HPLC, high humidity (RH92.5%) ([5]; day 10) | Purity by HPLC, high temperature (60° C.) ([5]; day 10) | Purity by HPLC, light (4500 ± 500 Lux) ([5]; day 10) | Purity by HPLC, high humidity (RH92.5%) ([5]; day 30) | Purity by HPLC, high temperature (60° C.) ([5]; day 30) | Purity by HPLC, light (4500 ± 500 Lux) ([5]; day 30) | also measured
1 | CC(=O)[C@H]1CC[C@H]2[C@@H]3CC[C@H]4C[C@H](O)CC[C@]4(C)[C@H]3CC[C@]12C [allopregnanolone] | – | – | – | – | – | – | – | – | – | – | – | – | human plasma half-life period [1]: about 45 minutes; oral availability [2]: poor
2 | CC(=O)[C@H]1CC[C@H]2[C@@H]3CC[C@H]4C[C@H](OC(=O)[C@@H](NC(=O)CN)C(C)C)CC[C@]4(C)[C@H]3CC[C@]12C.Cl [crystalline form A, glycine-L-valine 3α-hydroxy-5α-pregnan-20-one ester hydrochloride] | 99.69% | 99.69% | 99.69% | 99.69% | 99.62% | 99.66% | 99.69% | 99.68% | 99.70% | 99.69% | 99.69% | 99.67% | Effect of grinding, mechanical pulverising and pressure on stability (conclusion) [3]: no effects; Crystalline form after mechanical treatment (XRPD) ([3]; Ground in an agate mortar for a few minutes): Crystalline form A; Crystalline form after mechanical treatment (XRPD) ([3]; pressed in a tablet press): Crystalline form A; Crystalline form after mechanical treatment (XRPD) ([3]; pulverised in a mechanical shredder for a few minutes): Crystalline form A; Change of crystalline form (XRPD) after accelerated stability test [4]: no change; Stability under high temperature, high humidity and light conditions (conclusion) ([5]; up to 30 days): stable; Crystalline form after suspension (XRPD) ([6]; Acetone): Crystalline form A; Crystalline form after suspension (XRPD) ([6]; Ethanol): Crystalline form A; Crystalline form after suspension (XRPD) ([6]; Ethyl acetate): Crystalline form A; Crystalline form after suspension (XRPD) ([6]; Methanol): Crystalline form A; Crystalline form after suspension (XRPD) ([6]; Methyl tert-butyl ether): Crystalline form A; Crystalline form after suspension (XRPD) ([6]; Toluene): Crystalline form A; Crystalline form after suspension (XRPD) ([6]; n-Heptane): Crystalline form A; Stability in different solvent systems (conclusion) ([6]; seven solvents, 2 days at 40° C.): remains stable
3 | CC(=O)[C@H]1CC[C@H]2[C@@H]3CC[C@H]4C[C@H](OC(=O)[C@@H](NC(=O)CN)C(C)C)CC[C@]4(C)[C@H]3CC[C@]12C.Cl [crystalline form B, glycine-L-valine 3α-hydroxy-5α-pregnan-20-one ester hydrochloride] | 99.59% | 99.59% | 99.59% | 99.58% | 99.57% | 99.55% | 99.55% | 99.54% | 99.53% | 99.56% | 99.52% | 99.52% | –
4 | CC(=O)[C@H]1CC[C@H]2[C@@H]3CC[C@H]4C[C@H](OC(=O)[C@@H](NC(=O)CN)C(C)C)CC[C@]4(C)[C@H]3CC[C@]12C.Cl [crystalline form C, glycine-L-valine 3α-hydroxy-5α-pregnan-20-one ester hydrochloride] | 99.62% | 99.62% | 99.62% | 99.58% | 99.61% | 99.60% | 99.56% | 99.59% | 99.59% | 99.53% | 99.60% | 99.57% | –
